Test results from US8563236B2, “Mutational profiles in HIV-1 reverse transcriptase correlated with phenotypic drug resistance” (priority 1999, dated 2013).

How the values were obtained:
Assay type in all cases: cell-based, HIV-1
wild-type HXB2-D virus = test: MT-4 cell CPE protection assay, wild-type control virus
Protocol: (§1) Mutations were created in HIV-1 RT by site-directed mutagenesis and the mutant RT was then transferred into the HXB2-D wild-type virus background. The specific mutations created in this background are indicated. The nucleoside susceptibility of mutant viruses (fold increase in IC50 value relative to wild-type HXB2-D virus control) was assessed as described in ‘Methods’.
(§2) MT-4 cells (Harada S., et al, Science 229: 563-566 (1985).) were co-transfected with pol gene PCR fragments and the protease-RT deleted HIV-1 molecular clone, pGEM3ΔPRT, as described. See Hertogs K., et al., Antimicrob. Agents Chemother. 42: 269-276 (1998). […] Phenotypic susceptibility to nucleoside analogues was determined using an MT-4 cell viral cytopathic effect (CPE) protection assay as described. Id. Fold resistance values were derived by dividing the mean IC50 for a patient's recombinant virus by the mean IC50 for wild-type control virus (strain HXB2-D).
(§3) Mutations in the RT coding region were created by site-directed mutagenesis of a wild-type HXB2-D EcoRI-PstI restriction enzyme fragment, encompassing the HIV-1 pol gene and cloned into pGEM3 (Promega). Single and multiple nucleotide changes were introduced into RT using the ExSite mutagenesis kit (Strategene). All mutant clones were verified by DNA sequence analysis of the entire RT. PCR fragments were prepared from the mutated clones and the altered RT coding regions were transferred into the HIV-1 HXB2-D genetic background by homologous recombination as described above. The susceptibility of these recombinant viruses to nucleoside analogues was subsequently determined by the MT-4 cell CPE protection assay. Id.

[1] = tested on: HXB2-D virus with RT 210W, 215Y, 62V; test: MT-4 cell CPE protection assay, site-directed mutant virus
Protocol: as §1, §2, §3

[2] = tested on: HXB2-D virus with RT 210W, 215Y; test: as above
Protocol: as §1, §2, §3

[3] = tested on: HXB2-D virus with RT 69S-[S-S], 210W, 215Y, 62V; test: as above
Protocol: as §1, §2, §3

[4] = tested on: HXB2-D virus with RT 69S-[S-S], 210W, 215Y; test: as above
Protocol: as §1, §2, §3

[5] = tested on: HXB2-D virus with RT 69S-[S-S]; test: as above
Protocol: as §1, §2, §3

[6] = tested on: mutants carrying mutation 184V; test: Drug susceptibility assay, site-directed mutants (group statement); details: high resistance caused by mutation 184V
Protocol: Phenotypic analysis was performed using the recombinant virus assay. See Kellam, P., and B. A. Larder. Antimicrob Agents Chemother 38:23-30 (1994); Hertogs, K., et al., Agents Chemother. 42:269-276 (1998); Pauwels, R., et al., Abstracts of the 2nd International Workshop on HIV Drug Resistance and Treatment Strategies, Abstr. 51. Lake Maggiore, Italy (1998). Briefly, protease (PR) and reverse transcriptase (RT) coding sequences were amplified from patient-derived viral RNA with HIV-1 specific primers. After homologous recombination of amplicons into a PR-RT deleted proviral clone, the resulting recombinant viruses were harvested, titrated and used for in vitro susceptibility testing to antiretroviral drugs. The results of this analysis were expressed as fold-resistance values, reflecting the fold-increase in mean IC50 (μM) of a particular drug when tested with patient-derived recombinant virus isolates, relative to the mean IC50 (μM) of the same drug obtained when tested with a reference wild-type virus isolate (IIIB/LAI).
For the modeling studies, mutations were generated in the RT gene of HXB2, a wild-type laboratory HIV-1 strain, using the QuikChange^J Site-Directed Mutagenesis Kit, Stratagene^7, Stratagene Cloning systems, La Jolla, Calif., USA.
Two of them carried both 44D/A and 181I, while all but one (SDM23) carried ZDV resistance-correlated mutations. […]

[7] = tested on: variants with the 69S-[S-S] insert plus AZT resistance mutations; test: MT-4 cell CPE protection assay, site-directed mutant viruses (group statement)
Protocol: as §2
as §3, with “Id. […]” for “Id.”

[8] = tested on: codon 151 cluster viruses
Text: (§4) FIG. 2: Nucleoside analogue susceptibility of MDR patient-derived recombinant HIV variants. Recombinant viruses were produced from patient plasma samples as described in Example 2 and tested for susceptibility to (a) d4T, (b) ddC and (c) ddI. […] Error bars indicate standard errors. Note that the total number (n=310) is higher than the 302 MDR samples described because a small minority were 69D/N and 75M double mutants and are represented in both groups.
as §2
(§5) From this analysis, 302 samples were identified with four-fold or greater increases in IC50 (relative to a wild-type control virus) to at least four of these inhibitors. Thus, a substantial number of MDR viruses were present in the sample population.
(§6) Genotypic analysis was performed on all 892 samples by dideoxy-nucleotide sequencing. […] A comparison of the incidence of specific RT mutations in MDR samples versus non-MDR in the population surveyed is shown in FIG. 1. This analysis highlighted the incidence of the codon 151 mutational cluster in the MDR group. In addition, a novel family of amino acid insertions and rearrangements between codons 67 and 70 were also prevalent in the MDR group. These two patterns of mutations were correlated with high-level phenotypic multi-nucleoside resistance (FIG. 2), 27 samples having the codon 151 cluster and 45 samples having insertions and rearrangements (typically a T69S substitution, followed by insertion of two amino acids).

[9] = tested on: codon 69 insertion mutants
Text: as §4, §2, §5, §6

[10] = tested on: samples with AZT and 3TC resistance mutations plus T69A/N or V175M; test: Recombinant virus assay, MDR patient-derived recombinant HIV variants
Text: as §4, §2, §5
Genotypic analysis was performed on all 892 samples by dideoxy-nucleotide sequencing. […]

[11] = tested on: HXB2-D virus with T69A or V75M in a background of AZT mutations; test: MT-4 cell CPE protection assay, site-directed mutant viruses
Protocol: as §2, §3
To investigate the significance of the observed mutational patterns correlated with MDR virus we constructed a series of viruses by site-directed mutagenesis with specific changes in a defined genetic background (HXB2-D). […] In addition, the potential role of A62V, a substitution also frequently correlated with the insertions was investigated by adding this mutation to a background of 69S-[S-S] plus 210W/215Y.

[12] = Human immunodeficiency virus 1, MT4, mean values

## Nc1ccn([C@@H]2CS[C@H](CO)O2)c(=O)n1 [3TC, lamivudine]
wild-type HXB2-D virus; [12]
  IC50: 1670 nM
[1]; {}
  Fold increase in IC50: 1.3 fold
[2]; {}
  Fold increase in IC50: 3.8 fold
[3]; {}
  Fold increase in IC50: 15 fold
[4]; {}
  Fold increase in IC50: 20 fold
[5]; {}
  Fold increase in IC50: 6.2 fold
[6]
  resistance (fold): > 62 fold

## Cc1cn([C@H]2C[C@H](N=[N+]=[N-])[C@@H](CO)O2)c(=O)[nH]c1=O [AZT, zidovudine]
[7]
  susceptibility: decreased susceptibility

## Nc1nc(NC2CC2)c2ncn(C3C=CC(CO)C3)c2n1 (stereo not drawn) [compound 1592, 4-[(2-amino-6-cyclopropyl-amino)-9H-purin-9-yl]-2-cyclopentene-1-methanol]
wild-type HXB2-D virus; mean values
  IC50: 2900 nM
[1]; mutant genotype 210W, 215Y, 62V, relative to wild-type HXB2-D, mean of two determinations
  Fold increase in IC50: 0.7 fold
[2]; mutant genotype 210W, 215Y, relative to wild-type HXB2-D, mean of two determinations
  Fold increase in IC50: 1.5 fold
[3]; mutant genotype 69S-[S-S], 210W, 215Y, 62V, relative to wild-type HXB2-D, mean of two determinations
  Fold increase in IC50: 5.4 fold
[4]; mutant genotype 69S-[S-S], 210W, 215Y, relative to wild-type HXB2-D, mean of two determinations
  Fold increase in IC50: 4.6 fold
[5]; mutant genotype 69S-[S-S], relative to wild-type HXB2-D, mean of two determinations
  Fold increase in IC50: 2.6 fold
[7]
  susceptibility: decreased susceptibility

## Cc1cn([C@H]2C=C[C@@H](CO)O2)c(=O)[nH]c1=O [d4T, stavudine]
wild-type HXB2-D virus; [12]
  IC50: 2390 nM
[1]; {}
  Fold increase in IC50: 0.7 fold
[2]; {}
  Fold increase in IC50: 1.1 fold
[3]; {}
  Fold increase in IC50: 5.2 fold
[4]; {}
  Fold increase in IC50: 4.8 fold
[5]; {}
  Fold increase in IC50: 2.3 fold
[8]
  mean fold increase in IC50 (resistance): > 10 fold
[9]
  mean fold increase in IC50 (resistance): > 10 fold
[10]
  level of resistance: modest levels of resistance
[11]
  resistance conferred: little or no resistance

## Nc1ccn([C@H]2CC[C@@H](CO)O2)c(=O)n1 [ddC, zalcitabine]
wild-type HXB2-D virus; [12]
  IC50: 1410 nM
[1]; {}
  Fold increase in IC50: 0.8 fold
[2]; {}
  Fold increase in IC50: 1.2 fold
[3]; {}
  Fold increase in IC50: 2.7 fold
[4]; {}
  Fold increase in IC50: 4.2 fold
[5]; {}
  Fold increase in IC50: 2.1 fold
[8]
  mean fold increase in IC50 (resistance): > 10 fold
[9]
  mean fold increase in IC50 (resistance): > 10 fold
[10]
  level of resistance: modest levels of resistance
[11]
  resistance conferred: little or no resistance

## O=c1[nH]cnc2c1ncn2[C@H]1CC[C@@H](CO)O1 [ddI, didanosine]
wild-type HXB2-D virus; [12]
  IC50: 4600 nM
[1]; {}
  Fold increase in IC50: 0.5 fold
[2]; {}
  Fold increase in IC50: 1.2 fold
[3]; {}
  Fold increase in IC50: 1.8 fold
[4]; {}
  Fold increase in IC50: 2.1 fold
[5]; {}
  Fold increase in IC50: 1.7 fold
[11]
  resistance conferred: little or no resistance
